Measurements as given in ChEMBL document CHEMBL4431316, “New 6-Aminoquinoxaline Derivatives with Neuroprotective Effect on Dopaminergic Neurons in Cellular and Animal Parkinson Disease Models” (J Med Chem, 2016).
Activity calls are given as the source filed them. The calls are words filed in the database; no cut-off is given here.

Species on record: Rattus norvegicus
Experiment: Neuroprotective activity in Sprague-Dawley rat DA neuron death PD model assessed as inhibition of calcium mobilization at 50 uM after 10 days in presence of N-type voltage gated calcium channel blocker omega-conotoxin M7A
Format: functional

Nc1ccc2ncc(-c3ccccc3)nc2c1
inhibition: Active
